Source: patent US10155742B2, “Halofuginol derivatives and their use in cosmetic and pharmaceutical compositions” (President and Fellows of Harvard College, priority 2012, dated 2018)

Columns and labels:
[1] = system: Th17-driven multiple sclerosis model; details: Sundrud et al. 2009; cited from earlier work
[2] = Anti-HF ELISA of intracellular HF levels; type: in vitro ADME, mouse
Experimental: MEFs were incubated with the indicated concentration of HF in the presence or absence of 2 mM proline for 2 hours, washed twice in cold PBS, and lysed in 1% NP40. Lysates were then tested for HF levels in comparison to a standard curve using known concentrations of HF with an anti-HF antibody based ELISA assay (see Examples). […] Similar results were obtained in three separate experiments.
Polyclonal anti-HF antibody was raised by immunizing rabbits with KLH coupled to an HF derivative (MAZ1356, FIG. 1) containing a linker attached to the quinazolinone and terminated by a primary amino group. Antibody was affinity purified using MAZ1356 linked to NHS-agarose. For the ELISA assay (FIG. 17), MAZ1356 was coupled to 96-well Reacti-bind Plates (Pierce). After binding, plates were blocked with 10% goat serum in PBS/0.2% Tween-20 (PBST). […] Captured antibody was quantitated using TMB based colorimetric detection (Pierce), and a standard curve for HF concentration fitted from the colorimetric data. […] To determine HF concentration in cells, 8 μl of cleared lysate (or control buffer) was incubated with anti-HF antibody in MAZ1356 bound wells, and captured antibody detected and quantitated as described above. HF concentration was then determined by fitting colorimetry results with cell samples to a standard curve of HF concentration. […]

[3] = system: mouse embryo fibroblasts (MEFs); assay: HF and proline effects on mouse embryo fibroblasts (gene expression, ECM protein production, protein synthesis); type: cell-based
Experimental: A) Primary murine CD4^+ CD25^− T cells were activated through the T-cell receptor in Th17 polarizing conditions (Sundrud et al. Science 324:1334-8 (2009)) in the presence of either 10 nM MAZ1310 or HF and the following amino acid supplements: 10× concentration of essential (EAA) or non-essential (NEAA) amino acids mixtures (Biowhittaker or Invitrogen, respectively), or 10× concentrations (1 mM) of indicated individual amino acids. Data are presented as mean percentage of Th17 (IL-17+ IFNg−) cells +/−SD from triplicate wells. B) Th17 differentiation was assayed as described above, in the absence or presence of HF or borrelidin, with or without 1 mM threonine or proline supplementation. C) MEFs were treated with or without HF (50 nM) and/or proline (2 mM) for 4 hours (CHOP, S100A4) or 24 hours (ColIA1, Col1A2). mRNA expression was normalized to expression of TBP and is shown relative to untreated control. […] Confidence intervals (p-value) for the effect of HF alone versus HF+Pro were determined using a two-tailed Student's t test. Data are representative of two separate experiments. D) Cells were pre-incubated for 24 hours with HF and proline as indicated, and secretion of Type I procollagen was measured after 24 hours in conditioned medium of cells plated by Western blot and quantitated using Image J software (top panel). Total protein synthesis was measured as TCA-precipitable ^35S in a scintillation counter (bottom panel).
MEFs were incubated for 4 hours in HF with or without 2 mM proline, to measure new collagen production in conditioned medium. Cells were washed into fresh DMEM/0.2% FBS, and proline or HF re-added, and either conditioned medium (for Type I procollagen) or total cell lysate (for fibronectin, c-actin) and were harvested after 24 hours. Triplicate plates of cells for each condition were treated, harvested, and blotted in parallel. Protein levels were assayed by Western blot, detected using chemiluminescence, and film exposure was quantitated using Image J software.
For assays of HF and proline effects on fibroblasts, mouse embryo fibroblasts were grown in 10% FCS/DMEM. For studies of TGFβ signaling, ^35S methionine incorporation into total protein, and collagen production, cells were shifted into 0.2% FCS/DMEM 24 hours before the addition of HF or proline. For examination of protein expression and phosphorylation, cells were lysed in RIPA with 5 mM EDTA, 1× PhosStop (Roche), and 1× Complete protease inhibitor mix (Roche), and assayed by Western blot as described above. For analysis of gene expression, cells were lysed in Trizol (Invitrogen) and gene expression quantitated by quantitative RT-PCR using the Roche UPR Light-Cycler system.

[4] = de Jonge et al. 2006; cited from earlier work

SMILES: O=C(C[C@H]1NCCC[C@@H]1O)Cn1cnc2cc(Br)c(Cl)cc2c1=O (racemic) [HF, 7-bromo-6-chloro-3-[3-(3-hydroxy-2-piperidinyl)-2-oxopropyl]-4(3H)-quinazolinone]
- development of disease [1]: inhibits
- effect of proline addition on intracellular accumulation of HF ([2]; 2 mM proline, 2 hours, FIG. 17): not affected
- absolute HF concentration inside cells ([2]; MEFs incubated with 20 nM HF for 2 hours, packed cell volume estimated as 4 μl): ~800 nM
- production of secreted Type I procollagen and fibronectin ([3]; 24 hours treatment, FIG. 6D): dramatically inhibited
- mRNA levels of Col1A1, Col1A2, and S100A4 ([3]; MEFs, HF 50 nM, 4 or 24 hours, FIG. 6C): inhibits
- expression of mRNA encoding CHOP ([3]; MEFs, HF 50 nM, 4 hours, FIG. 6C): stimulated
- 35S-methionine incorporation into total protein ([3]; same doses as ECM protein inhibition, FIG. 6D): did not significantly change
- toxicity in humans (nausea, vomiting, fatigue, possibly bleeding complications) [4]: some toxicity
